Results: patent US20080293679A1, “Use of carotenoids and/or carotenoid derivatives/analogs for reduction/inhibition of certain negative effects of COX inhibitors” (priority 2005, published 2008)
Marks after values point to notes of the source that are not given here.

What was measured:
[1] = Peroxidation study in DLPC multilamellar vesicles, C/P 0.6; assay type: biochemical; conditions: C/P 0.6, carotenoid 10 μM, 48 hour
Experimental: 1. Samples were prepared in a glass test tube as described in the table above. This gives a cholesterol/DLPC mole ratio of 0.6 and a final concentration of 10 μM for the carotenoids. Equal volumes of vehicle (20 μl chloroform) were added to control samples. 2. All samples were dried down under a steady stream of nitrogen gas while vortexing. 3. Samples were placed in a vacuum desiccator for 2 hours to remove residual solvent and protected from light. 4. Multi-lamellar vesicles (MLVs) were prepared by the method developed by Bangham and Standish (1965). After samples were removed from the vacuum desiccator, they were immediately resuspended in 1 ml of diffraction buffer warmed to room temperature and vortexed for 3 minutes to form MLVs.
This assay is based on the principle of the oxidative capacity of lipid peroxides to convert I2 to I3^− (triiodide), which can be measured photometrically at 365 nm (el-Saadani et al., 1989). This assay is sensitive to peroxide concentrations as low as 10 μM.
1. Samples were placed in a water bath set at 37° C. throughout the experiment. 2. Aliquots of a sample (20 μl) were extracted at a 48 hour time point as described in the table below.
3. After combining the samples with CHOD active reagent and the diffraction buffer, test samples were incubated for about 6 hours in darkness at ambient temperature. 4. The absorbance of a sample was measured photometrically at 365 nm.
Concentrations of lipid peroxides were calculated by the use of the molar absorptivity of I3^− measured at 365 nm (ε=2.46±0.25×10^4M^−1 cm^−1). This value was determined by adding known concentrations of […] to the CHOD reagent. A stoichiometric relationship (slope=1.02) was observed between the amount of organic peroxides assayed and the concentration of I3^− produced.

[2] = Lipid peroxide levels in DLPC multilamellar vesicles, C/P 0.2 (triiodide assay); assay type: biochemical; conditions: for Lipid Peroxide Levels: mean ± S.D.
Experimental: The levels of lipid peroxide formation were measured photometrically at specific time points. […] Samples were prepared in a glass test tube as described in the table above. […] Sample tubes were vortexed for 3 min to form MLVs. This assay is based on the principle of the oxidative capacity of lipid peroxides to convert […], which can be measured photometrically at […] (El-Saadani et al., 1989). […] Samples were placed in a water bath set at 37° C. Samples remained in the water bath throughout the experiment except for the temporary removal for time point extractions. • 2. […] • 3. After combining sample time point aliquots with CHOD active reagent and the diffraction buffer as described in the table above, test samples were incubated about 6 hours in darkness at ambient temperature. • 4. The absorbance ([…] nm) of the samples was measured using a spectrophotometer. • 5. […] This value was determined by adding known concentrations of I2 to the CHOD reagent. A stoichiometric relationship (slope=1.02) was observed between the amount of organic peroxides assayed and the concentration of I3^- produced.

human LDL = experiment: MDA formation (TBARS) in isolated human LDL; assay type: biochemical; conditions: for MDA level in LDL samples: 1 μM, vehicle 3.23±0.28 μM
Experimental: The effects of the compounds on lipid peroxidation were tested in isolated human LDL. Human venous blood was collected into vacutainer tubes containing K3EDTA after a 12-hour fast. Plasma was immediately separated by centrifugation at 3000 g for 25 minutes. LDL was obtained from plasma by ultracentrifugation using a procedure similar to that reported by Chung et al, 1986 using discontinuous KBr gradient. The purity of the freshly isolated LDL was assessed by SDS-PAGE using the procedure of Laemmli, 1970.
The extent of oxidation was measured for the LDL in the absence and presence of the drugs over a range of concentrations. Malondialdehyde (MDA), a product of lipid oxidation, was measured by the reaction of this aldehyde with thiobarbituric acid in an acid medium to form a stable chromogen, referred to as thiobarbituric-acid-reactive-substances (TBARS). Purified LDL (100 μg protein/ml) was incubated for 30 minutes with either vehicle or an NSAID at various concentrations followed by addition of 50 μM CuSO4 at 37° C. Conjugated diene formation was measured by continuously monitoring the change in absorbance at 234 nm on a Beckman DU 640 spectrophotometer, as described by Esterbauer et al., 1985. Stock solutions were tested for iron contamination, which can contribute independently to lipid peroxidation and assay artifacts.

[3] = F2-isoprostane formation from DAPC lipid vesicles by GC/NCI-MS; assay type: biochemical
Experimental: F2-Isoprostanes are derived principally from the formation of positioned peroxyl radical isomers of arachidonic acid, endocyclization to protaglandin G2-like structures, and reduction to PGF2-like compounds. Total levels of F2-isoprostanes, in DAPC lipid vesicles prepared in the presence of vehicle or drug, were measured by GC-MS with negative chemical ionization as described by Walter et al., 2000. Peroxidation of lipids occurred over time in the absence of any exogenous initiators at 37° C. F2-Isoprostane formation was also measured independently using mass spectroscopy in a blinded study at the Antioxidant Research Laboratory, Tufts University, Boston, Mass.

[4] = Oxygen Radical Absorption Capacity (ORAC) of human plasma; assay type: biochemical; conditions: 10.0 μM (highest concentration tested); vehicle 28.1±1.2
Experimental: The comparative effect of COX-2 selective agents on the antioxidant capacity of human plasma was assessed using the Oxygen Radical Absorption Capacity (ORAC) assay. This assay was carried out according to the method of Huang et al., 2002 with fresh plasma using a microplate fluorescence reader in 96 well format with the excitation and emission filters set at 485 and 530 nm respectively.

[5] = cited from earlier work
[6] = system: superoxide anion generation from phorbol-ester (PMA)-stimulated PMNs; experiment: Direct superoxide anion scavenging by EPR spectroscopy (DEPMPO spin trap), isolated human neutrophil assay; assay type: cell-based
Experimental: Leukocyte Isolation and Preparation. Human polymorphonuclear leukocytes (PMNs) were isolated from freshly sampled venous blood of a single volunteer by Percoll density gradient centrifugation as described previously. Briefly, each 10 mL of whole blood was mixed with 0.8 mL of 0.1 M EDTA and 25 mL of saline. The diluted blood was then layered over 9 mL of Percoll at a specific density of 1.080 g/mL. After centrifugation at 400×g for 20 min at 20° C., the plasma, mononuclear cell, and Percoll layers were removed. Erythrocytes were subsequently lysed by addition of 18 mL of ice-cold water for 30 s, followed by 2 mL of 10×PIPES buffer (25 mM PIPES, 110 mM NaCl, and 5 mM KCl, titrated to pH 7.4 with NaOH). Cells were then pelleted at 4° C., the supernatant was decanted, and the procedure was repeated. After the second hypotonic cell lysis, cells were washed twice with PAG buffer [PIPES buffer containing 0.003% human serum albumin (HSA) and 0.1% glucose]. Afterward, PMNs were counted by light microscopy on a hemocytometer. The isolation yielded PMNs with a purity of >95%. The final pellet was then suspended in PAG-CM buffer (PAG buffer with 1 mM CaCl2 and 1 mM MgCl2).
EPR Measurements. All EPR measurements were performed using a Bruker ER 300 EPR spectrometer operating at X-band with a TM110 cavity as previously described. The microwave frequency was measured with a Model 575 microwave counter (EIP Microwave, Inc., San Jose, Calif.). To measure superoxide anion ? generation from phorbol-ester (PMA)-stimulated PMNs, EPR spin-trapping studies were performed using the spin trap DEPMPO (Oxis, Portland, Oreg.) at 10 mM. 1×10^6 PMNs were stimulated with PMA (1 ng/mL) and loaded into capillary tubes for EPR measurements. To determine the radical scavenging ability of 3 and 9 in aqueous and ethanolic formulations, PMNs were pre-incubated for 5 minutes with test compound, followed by PMA stimulation.
Instrument settings used in the spin-trapping experiments were as follows: modulation amplitude, 0.32 G; time constant, 0.16 s; scan time, 60 s; modulation frequency, 100 kHz; microwave power, 20 milliwatts; and microwave frequency, 9.76 GHz. The samples were placed in a quartz EPR flat cell, and spectra were recorded. The component signals in the spectra were identified and quantified as reported previously.

[7] = 24 Hour, carotenoid 1 μM, control 218 ± 20
[8] = 24 Hour, carotenoid 10 μM, control 218 ± 20
[9] = 48 Hour, carotenoid 1 μM, control 572 ± 76
[10] = 48 Hour, carotenoid 10 μM, control 572 ± 76

Molecule	% increase (+) or decrease (−) of lipid peroxide levels compared to control ([2]; 24 Hour, carotenoid 1 μM)	Lipid Peroxide Levels [2, 7]	% increase (+) or decrease (−) of lipid peroxide levels compared to control ([2]; 24 Hour, carotenoid 10 μM)	Lipid Peroxide Levels [2, 8]	% increase (+) or decrease (−) of lipid peroxide levels compared to control ([2]; 48 Hour, carotenoid 1 μM)	Lipid Peroxide Levels [2, 9]	% increase (+) or decrease (−) of lipid peroxide levels compared to control ([2]; 48 Hour, carotenoid 10 μM)	Lipid Peroxide Levels [2, 10]	also measured
CC(C)=CCC/C(C)=C/C=C/C(C)=C/C=C/C(C)=C/C=C/C=C(C)/C=C/C=C(C)/C=C/C=C(\C)CCC=C(C)C [Lycopene]	+9.6%^a	239 ± 2 µM	+85.8%^a	405 ± 32 µM	+13.1%^a	647 ± 61 µM	+119.1%^a	1253 ± 55 µM	antioxidant/prooxidant activity [1]: highest prooxidant activity
CC1=C(/C=C/C(C)=C/C=C/C(C)=C/C=C/C=C(C)/C=C/C=C(C)/C=C/C2=C(C)CCCC2(C)C)C(C)(C)CCC1 [β-Carotene]	+24.8%^a	272 ± 10 µM	+69.3%^a	369 ± 17 µM	+40.4%^a	803 ± 99 µM	+86.7%^a	1068 ± 82 µM	antioxidant/prooxidant activity [1]: prooxidant activity
CC1=CC(O)CC(C)(C)C1/C=C/C(C)=C/C=C/C(C)=C/C=C/C=C(C)/C=C/C=C(C)/C=C/C1=C(C)CC(O)CC1(C)C (stereo not drawn) [Lutein, β,ε-carotene-3,3′-diol]	+15.6%^a	252 ± 11 µM	+0.9%^a	220 ± 8 µM	+13.5%^a	649 ± 73 µM	+17.7%^a	673 ± 69 µM	
CS(C)(=O)=O [dimethyl sulfone]									MDA level in LDL samples (human LDL): 3.32 ± 0.19 µM
Cc1ccc(-c2cc(C(F)(F)F)nn2-c2ccc(S(N)(=O)=O)cc2)cc1 [celecoxib]									effect on peroxidation of arachidonic acid-enriched vesicles ([3]; even at higher concentrations (data not shown)): no significant effect; ORAC value (AUC) [4]: 28.5±0.1; maximum plasma concentration (Cmax) ([5]; approved 200 mg dose): 705 ng/mL; volume of distribution ([5]; in vivo): 400 L; Cmax ([5]; read-out: maximum plasma concentration (Cmax), approved 200 mg dose): 1850 nM
CC1=C(/C=C/C(C)=C/C=C/C(C)=C/C=C/C=C(C)/C=C/C=C(C)/C=C/C2=C(C)C[C@@H](O)CC2(C)C)C(C)(C)C[C@H](O)C1 [Zeaxanthin]	+10.6%^a	241 ± 12 µM	−0.5%^a	217 ± 7 µM	+5.8%^a	605 ± 26 µM	+20.6%^a	690 ± 24 µM	
3,3′-Diphosphoryloxy-β,ε-carotene sodium salt [Lutein Diphosphate Sodium Salt]									Mean (% inhibition) of superoxide anion signal ([6]; 40% EtOH, 0.1 mM): 18%; Mean (% inhibition) of superoxide anion signal ([6]; Water, 0.1 mM, listed as disodium diphosphate derivative of natural source lutein, sodium salt): 0%; Mean (% inhibition) of superoxide anion signal ([6]; Water, 0.1 mM, sodium salt): no inhibition; Mean (% inhibition) of superoxide anion signal ([6]; Water, 1.0 mM): 9.3%; Mean (% inhibition) of superoxide anion signal ([6]; Water, 3.0 mM): 72.3%; Mean (% inhibition) of superoxide anion signal ([6]; Water, 5.0 mM, listed as disodium diphosphate derivative of natural source lutein, sodium salt): more than 90%; Mean (% inhibition) of superoxide anion signal ([6]; Water, 5.0 mM, sodium salt): 91.0%
Cc1ccc(-c2ncc(Cl)cc2-c2ccc(S(C)(=O)=O)cc2)cn1 [etoricoxib]									Levels of isoprostanes ([3]; 100 nM, vehicle 140±25 ng/100 μl, mean ± S.D.): 224±22 ng/100 μl; effect on MDA levels (TBARS) in human LDL (human LDL): marked increases
CS(=O)(=O)c1ccccc1 [methyl phenyl sulfone]									MDA level in LDL samples (human LDL): 3.25 ± 0.13 µM
